Converted amounts (≈) assume the structure as drawn.
Tested on: VZV
Assay: EC50 determination in HFFs, VZV-BAC-Luc bioluminescence
Type: cell-based, varicella-zoster virus
Procedure: Human foreskin fibroblasts (HFFs) (CCD-1137Sk; American Type Culture Collection), used prior to passage 20 were grown in Eagle minimum essential medium with Earle's salts and L-glutamine (HyClone Laboratories), supplemented with 10% heat-inactivated fetal bovine serum (Benchmark FBS; Gemini Bio Products), penicillin-streptomycin (5000 IU/mL), amphotericin B (250 µg/mL), and nonessential amino acids (all Mediatech). VZV-BAC-Luc (Zhang et al., 2007), derived from the Parental Oka (POka, Accession number: AB097933) strain was propagated in HFFs. To prepare the virus for inoculation, VZV-infected HFFs were trypsinized, then washed and resuspended in TCM, and used immediately for direct injection. Each tissue was injected twice with 30 μL of the cell suspension using a 1 cc syringe fitted with a 27-gauge needle attached to a volumetric stepper (Tridak). […]
The first question we addressed was whether N-MCT was effective against VZV in cultured cells. A standard EC50 evaluation was performed using the VZV-BAC-Luc strain and virus yield was measured by bioluminescence. […]
Cells were treated for 48 hpi (hour post infection) and the medium containing the drug was changed after 24 h. VZV spread was measured by bioluminescence imaging at 48 hpi and expressed as Total Flux (photons/sec/cm^2/steradian). […]

Structure (SMILES): Cc1cn([C@]23C[C@H](O)[C@@H](CO)[C@@H]2C3)c(=O)[nH]c1=O [N-MCT, N-methanocarbathymidine]
- EC50 (Human alphaherpesvirus 3, Fibroblast, human foreskin fibroblasts, VZV-BAC-Luc, bioluminescence at 48 hpi): 0.06 µg/mL (≈ 0.238 µM)
- EC50 (Human alphaherpesvirus 3, cultured cells): 0.06 µg/mL (≈ 0.238 µM)

Source: patent US10758536B2, “Method for treating shingles with N-methanocarbathymidine (N-MCT)” (priority 2015, dated 2020)
